The subject of experiment [1] is IL-6 in A549 cells stimulated with IL-1β. The experiment in a line: A549 Cell Assay to Measure Inflammation Markers (inhibition of IL-1β-induced IL-6). To be noted: intrinsic activity, Emax class ranges; for Emax: Homo sapiens, A549, A549 Cell Assay to Measure Inflammation Markers. Format: cell-based. As to the method: A549 Cell Assay to Measure Inflammation Markers
Further dilution (1:250) of compound was made into assay medium and 50 μL/well diluted drug or DMSO/media control was applied to cells. After a 1 h pre-incubation in a temperature, CO2, and humidity controlled incubator, set to 37° C., 50 μL/well of 4 ng/mL IL-1β diluted in assay media, was applied to cultures. Assay plates, with a final volume of 200 μL/well and final concentrations of 0.1% DMSO and 1 ng/mL IL-1β were returned to incubator for a […] incubation period. Next, plates were spun at 183 g (1000 rpm in Beckman/Coulter Allegra 6KR centrifuge) for 10 min. Cell-free supernatant (150 μL/well) was collected and IL-6 was measured by MSD kit, following protocol of manufacturer, and using MSD SECTOR Imager 6000 instrument. […] Results were represented as IC50 and Emax values.

In experiment [2] the target is T1, Glucocorticoid Receptor (GR) (Homo sapiens, UniProt P04150).
T1 construct: purchased Invitrogen P2893
T1 sequence (P04150 1-777): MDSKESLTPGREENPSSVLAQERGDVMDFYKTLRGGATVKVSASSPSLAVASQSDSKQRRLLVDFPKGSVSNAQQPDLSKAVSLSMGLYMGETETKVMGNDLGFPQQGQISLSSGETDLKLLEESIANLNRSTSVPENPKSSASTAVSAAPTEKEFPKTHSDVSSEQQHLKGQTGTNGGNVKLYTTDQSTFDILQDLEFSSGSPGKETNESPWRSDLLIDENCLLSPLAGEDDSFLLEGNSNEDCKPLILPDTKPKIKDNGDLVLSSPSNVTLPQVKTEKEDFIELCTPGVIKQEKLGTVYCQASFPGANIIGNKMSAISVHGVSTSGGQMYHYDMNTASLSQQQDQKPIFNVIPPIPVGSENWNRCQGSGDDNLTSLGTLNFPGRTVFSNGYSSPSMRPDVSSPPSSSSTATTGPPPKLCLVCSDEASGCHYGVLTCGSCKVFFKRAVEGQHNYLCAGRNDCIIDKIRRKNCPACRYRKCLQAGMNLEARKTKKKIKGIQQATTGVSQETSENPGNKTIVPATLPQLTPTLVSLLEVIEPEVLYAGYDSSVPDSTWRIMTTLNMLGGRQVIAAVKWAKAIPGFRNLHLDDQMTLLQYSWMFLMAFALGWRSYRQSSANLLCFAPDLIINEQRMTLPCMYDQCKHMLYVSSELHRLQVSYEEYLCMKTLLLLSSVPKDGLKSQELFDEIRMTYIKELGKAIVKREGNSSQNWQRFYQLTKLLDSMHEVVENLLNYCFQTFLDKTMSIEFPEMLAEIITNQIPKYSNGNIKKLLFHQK
The experiment in a line: GR Fluorescence Polarization Assay (PolarScreen Glucocorticoid Receptor Competitor Assay, Red). Conditions: IC50 class ranges, read-out: GR binding. In short, it runs like this:
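Competitive fluorescence-polarization assay using a red fluorescent glucocorticoid tracer with human GR in kit buffer. Compounds serially diluted 1:4 in DMSO, incubated with tracer and GR overnight at 4° C, then polarization read.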

In general, Emax refers to the greatest response seen or fitted, relative to the assay's reference.

Take `Cc1cc(Br)ccc1C1SC(C)(C)CNc2c1c(C)nn2C` (stereo not drawn) [D.58, 4-(4-bromo-2-methyl-phenyl)-1,3,6,6-tetramethyl-7,8-dihydro-4H-pyrazolo[3,4-e][1,4]thiazepine]: the Emax in experiment [1] is greater than 50%. Moreover, the IC50 in experiment [2] was less than 100 nM.

In the case of `Cc1cc(Cl)ccc1C1SCCNc2c1c([C@@H]1CCCN1)nn2C` (mixture of isomers), in experiment [1], the Emax is less than 50%. Moreover, the IC50 in experiment [2] fell in the range of 1000 to 10000 nM.

`CCn1nc(-c2ccccn2)c2c1NCCSC2c1ccc(C(=O)Nc2cc(C)no2)cc1C` (stereo not drawn) [R.1, 4-(1-ethyl-3-(pyridin-2-yl)-4,6,7,8-tetrahydro-1H-pyrazolo[3,4-e][1,4]thiazepin-4-yl)-3-methyl-N-(3-methylisoxazol-5-yl)benzamide] yielded an Emax in experiment [1] of less than 50%. In experiment [2], the IC50 was less than 100 nM.

Take `CCn1nc(-c2ccccn2)c2c1N[C@@H](C)CS[C@H]2c1ccc(C#CC(C)(C)O)cc1C` (single isomer, unassigned) [M.32, 4-(4-(1-ethyl-7-methyl-3-(pyridin-2-yl)-4,6,7,8-tetrahydro-1H-pyrazolo[3,4-e][1,4]thiazepin-4-yl)-3-methylphenyl)-2-methylbut-3-yn-2-ol]: the maximal response (Emax) in experiment [1] was greater than 70%. Moreover, the IC50 in experiment [2] is less than 100 nM.

For `Cc1cc(Br)ccc1C1SC(C)CNc2c1c(C1CC1)nn2C` (stereo not drawn) [D.52], the “A549 Emax” value in experiment [1] (A549 Cell Assay to Measure Inflammation Markers) is reported as “D (a compound with Emax<50%)”. Further, the IC50 in experiment [2] is less than 100 nM.

As for `Cn1nc(C2CC2)c2c1NCC(C)(C)SC2c1ccc(Cl)cc1F` (single isomer, unassigned) [M.3, 4-(4-chloro-2-fluorophenyl)-3-cyclopropyl-1,6,6-trimethyl-4,6,7,8-tetrahydro-1H-pyrazolo[3,4-e][1,4]thiazepine], the maximal response (Emax) in experiment [1] was less than 50%. Further, in experiment [2], the IC50 fell in the range of 1000 to 10000 nM.

Take `Cc1ccc(C#N)cc1C1SC(C)(C)CNc2c1c(C1CC1)nn2C` (stereo not drawn) [G.5]: in experiment [1], the maximum response (Emax) was less than 50%. In addition, the IC50 in experiment [2] lay within 100 to 1000 nM.

In turn, `Cn1nc(-c2ccccn2)c2c1NCCS[C@@H]2c1ccc(Br)cc1Cl` (single isomer, unassigned) [M.1, 4-(4-bromo-2-chlorophenyl)-1-methyl-3-(pyridin-2-yl)-4,6,7,8-tetrahydro-1H-pyrazolo[3,4-e][1,4]thiazepine] returned an Emax in experiment [1] of less than 50%. For the same compound, the IC50 in experiment [2] was 100 to 1000 nM.

`Cc1cc(OCc2cccnc2)ccc1C1SCCNc2c1c(-c1ccccn1)nn2C` (stereo not drawn): in experiment [1], the Emax is less than 50%. In addition, in experiment [2], the IC50 was 100 to 1000 nM.

Take `Cn1nc(-c2ccccn2)c2c1NCCSC2c1ccc(Br)cc1` (stereo not drawn) [D.25, 4-(4-bromophenyl)-1-methyl-3-(2-pyridyl)-4,6,7,8-tetrahydropyrazolo[3,4-e][1,4]thiazepine]: the Emax in experiment [1] was less than 50%. In addition, the IC50 in experiment [2] lay within 100 to 1000 nM.

In the case of `Cc1cc(Br)ccc1C1SCCNc2c1c(-c1ccccn1)nn2C` (stereo not drawn), in experiment [1], the maximum response (Emax) was greater than 50%. The IC50 in experiment [2] was less than 100 nM.

For `Cc1c(Br)cccc1C1SC(C)(C)CNc2c1c(C1CC1)nn2C` (stereo not drawn) [D.69], in experiment [1], the maximal response (Emax) was less than 50%. In experiment [2], the IC50 was in the range of 100 to 1000 nM.

In experiment [1], `Cc1cc(Cl)ccc1C1SC(CCO)C(C)Nc2c1c(C)nn2C` (single isomer, unassigned) yielded an Emax greater than 70%. The IC50 in experiment [2] lay in the range of 100 to 1000 nM.

In turn, `Cc1cc(Cl)ccc1[C@@H]1SC(C)(C)CNc2c1c(C)nn2C` (single isomer, unassigned) [M.7] displayed an Emax in experiment [1] of less than 50%. In addition, in experiment [2], the IC50 is 1000 to 10000 nM.

On to `Cc1cc(C#N)ccc1C1SC(C)(C)CNc2c1c(C)nn2C` (stereo not drawn) [G.6], for which the maximal response (Emax) in experiment [1] is less than 50%. Besides, the IC50 in experiment [2] lay in the range of 100 to 1000 nM.

In experiment [1], `CCn1nc(-c2ccccn2)c2c1NCCSC2c1ccc(C(=O)Nc2cccnc2C)cc1C(F)(F)F` (single isomer, unassigned) [M.68, 4-(1-ethyl-3-(pyridin-2-yl)-4,6,7,8-tetrahydro-1H-pyrazolo[3,4-e][1,4]thiazepin-4-yl)-N-(2-methylpyridin-3-yl)-3-(trifluoromethyl)benzamide] had an Emax greater than 70%. Moreover, the IC50 in experiment [2] was in the range of 1000 to 10000 nM.

In experiment [1], `CCc1cc(Cl)ccc1C1SCCNc2c1c(-c1ccccn1)nn2C` (stereo not drawn) came in with an Emax greater than 50%. Further, the IC50 in experiment [2] is less than 100 nM.

`Cn1nc(C(C)(C)C)c2c1NCCSC2c1ccc(Cl)cc1Cl` (stereo not drawn) [D.85]: the Emax in experiment [1] was less than 50%. For the same compound, the IC50 in experiment [2] was 100 to 1000 nM.

As to `Cn1nc(-c2ccccn2)c2c1NCCSC2c1ccc(C(=O)Nc2cccnc2)cc1Cl` (stereo not drawn) [H.3], in experiment [1], the Emax is less than 50%. The IC50 in experiment [2] lay within 100 to 1000 nM.

In experiment [1], `Cn1nc(-c2ccccn2)c2c1NCCSC2c1ccc(C(=O)O)cc1Cl` (stereo not drawn) returned an Emax of less than 50%. For the same compound, the IC50 in experiment [2] fell in the range of 100 to 1000 nM.

`Cc1nn(C)c2c1C(c1ccc(Cl)cc1Cl)SC(C)(C)CN2C=O` (stereo not drawn): the Emax in experiment [1] is less than 50%. The IC50 in experiment [2] lay in the range of 1000 to 10000 nM.

`Cn1nc(-c2ccccn2)c2c1NCCS[C@H]2c1ccc(Br)cc1Cl` (single isomer, unassigned) [M.2, 4-(4-bromo-2-chlorophenyl)-1-methyl-3-(pyridin-2-yl)-4,6,7,8-tetrahydro-1H-pyrazolo[3,4-e][1,4]thiazepine]: in experiment [1], the maximum response (Emax) was less than 50%. Moreover, in experiment [2], the IC50 was less than 100 nM.

`Cc1ncccc1NC(=O)c1ccc(C2SCCNc3c2c(-c2ccccn2)nn3C)c(Cl)c1` (single isomer, unassigned) had an Emax in experiment [1] of less than 50%. In addition, the IC50 in experiment [2] fell in the range of 1000 to 10000 nM.

Turning to `Cc1cc(C#N)ccc1C1SCC(C)Nc2c1c(-c1ccccn1)nn2C` (stereo not drawn) [G.7], the maximal response (Emax) in experiment [1] is greater than 70%. The IC50 in experiment [2] is less than 100 nM.

For `CCn1nc(-c2ccccn2)c2c1N[C@H](C)CS[C@H]2c1ccc(C#CCO)cc1C` (single isomer, unassigned) [M.27, 3-(4-(1-ethyl-7-methyl-3-(pyridin-2-yl)-4,6,7,8-tetrahydro-1H-pyrazolo[3,4-e][1,4]thiazepin-4-yl)-3-methylphenyl)prop-2-yn-1-ol], the Emax in experiment [1] is greater than 60%. In addition, the IC50 in experiment [2] was less than 100 nM.

In experiment [1], `Cc1cc(Cl)ccc1C1SCCNc2c1c(C1CCCO1)nn2C` (stereo not drawn) [D.72] displayed an Emax of less than 50%. Also, in experiment [2], the IC50 was in the range of 100 to 1000 nM.

In experiment [1], `Cc1ncccc1NC(=O)c1ccc(C2SC(C)(C)CNc3c2c(C)nn3C)c(Cl)c1` (single isomer, unassigned) [M.8, 3-chloro-N-(2-methylpyridin-3-yl)-4-(1,3,6,6-tetramethyl-4,6,7,8-tetrahydro-1H-pyrazolo[3,4-e][1,4]thiazepin-4-yl)benzamide] returned an Emax of less than 50%. Moreover, the IC50 in experiment [2] was 1000 to 10000 nM.

`Cc1cc(C#N)ccc1[C@H]1S[C@@H](C)CNc2c1c(C1CC1)nn2C` (racemic) [G.3] displayed a maximal response (Emax) in experiment [1] of less than 50%. Further, the IC50 in experiment [2] was less than 100 nM.

For `Cn1nc(-c2ccccn2)c2c1NCCSC2Cc1ccccc1` (stereo not drawn) [D.36], the Emax in experiment [1] was less than 50%. Also, in experiment [2], the IC50 was greater than 10000 nM.

Consider `Cc1ccc(C)c(C2SCCNc3c2c(-c2ccccn2)nn3C)c1` (stereo not drawn) [D.20], for which the Emax in experiment [1] is less than 50%. Besides, the IC50 in experiment [2] is less than 100 nM.

Take `Cc1cc(Cl)ccc1C1SCCNc2nn(C)cc21` (stereo not drawn) [D.13]: the maximum response (Emax) in experiment [1] is less than 50%. The IC50 in experiment [2] lay in the range of 1000 to 10000 nM.

In turn, `Cc1cc(F)ccc1C1SCCNc2c1c(-c1ccccn1)nn2C` (stereo not drawn) [D.11] came in with an Emax in experiment [1] greater than 50%. Also, the IC50 in experiment [2] is less than 100 nM.

In experiment [1], `Cc1nn(CC(O)C(F)(F)F)c2c1C(c1ccc(Cl)cc1Cl)SC(C)(C)CN2` (single isomer, unassigned) [M.5, 3-(4-(2,4-dichlorophenyl)-3,6,6-trimethyl-4,6,7,8-tetrahydro-1H-pyrazolo[3,4-e][1,4]thiazepin-1-yl)-1,1,1-trifluoropropan-2-ol] registered an Emax of less than 50%. Also, the IC50 in experiment [2] was in the range of 1000 to 10000 nM.

In turn, `Cc1cc(C#N)ccc1[C@@H]1S[C@@H](C)CNc2c1c(C)nn2C` [G.2] registered a maximal response (Emax) in experiment [1] of less than 50%. Further, the IC50 in experiment [2] was in the range of 100 to 1000 nM.

Compound `Cc1cc(Br)sc1C1SCCNc2c1c(-c1ccccn1)nn2C` (stereo not drawn) [D.26, 4-(5-bromo-3-methyl-2-thienyl)-1-methyl-3-(2-pyridyl)-4,6,7,8-tetrahydropyrazolo[3,4-e][1,4]thiazepine] displayed a maximal response (Emax) in experiment [1] of less than 50%. Besides, in experiment [2], the IC50 was less than 100 nM.

In the case of `Cc1cc(Cl)ccc1C1SCCNc2c1c(-c1ccccn1)nn2CC(F)(F)F` (stereo not drawn) [D.104], the maximal effect (Emax) in experiment [1] is greater than 70%. Besides, the IC50 in experiment [2] was less than 100 nM.
